Consider four compounds from US12275985B2, “Redox labeled oligonucleotide probes and their use” (ABBOTT DIAGNOSTICS SCARBOROUGH, INC., priority 2016, dated 2025).

SMILES strings stand for the structures.

Data set [1] concerns InfA[PA] and InfB[PA] DNA. The data set is described as follows: Duplexed RPA detection with 1:1 mixture of MB- and PZ9-labelled probes on HeartCheck sensor. Further details: species or system Influenza A and Influenza B. Particulars: duplexed detection at 15 min, 10^7 copies of each target, third order polynomial baseline correction.
Data set [2] is described as follows: DPV detection of cleaved redox labels in RPA reactions (peak potential and current). Format: physicochemical. The settings on record: for ΔE vs MB / E (DPV peak potential of cleaved label): label cleaved from Fpg probe in RPA, DPV. The procedure:
DNA and RNA amplification by RPA can be monitored in real-time or by end-product detection using the TwistAmp® basic kit with DPV detection. Briefly, a clinical sample (e.g., a clinical swab or wipe) is added to an RPA reagent mixture specific for a target nucleic acid sequence, the reagent mixture containing an Exo or Fpg oligonucleotide probe labeled with a redox-moiety, such as those described above, and maintained at 37° C.-42° C. for a time sufficient for amplification. Incubation in the presence of an ExoIII or Fpg exonuclease results in cleavage of probe/target DNA hybrids which allows for liberation of the redox-moiety (see FIG. 14). The liberated redox-moiety can be detected by, for example, amperometry, voltammetry (e.g., Differential Pulse voltammetry), and AC-impedance. Where the redox label has been cleaved from the probe/target complex (i.e., a sample positive for the target nucleic acid) a peak in current is observed at a voltage which corresponds to the oxidation potential of the label. Where the redox label has not been released from the oligonucleotide probe (i.e., a sample negative for the target nucleic acid), no peak is observed.
A “DPV output” of a given RPA reaction is determined by measuring the signal current generated by the redox-label present in the reaction in response to applied potentials. The DPV procedure requires the definition of several key parameters: interval period (related to scan rate), step potential, amplitude of the pulse (amp) and time of the pulse (pulse width). An example of these settings were: interval period 0.1 s, step potential 5 mV, pulse amplitude 75 mV and pulse width 30 ms. In addition to these parameters for the actual measurement, the DPV protocol also entails a series of 3 initial sequences of potential changes (“sweeps”) the output of which is not being directly quantified.
At FIG. 1, a method for electrochemical detection of an amplified nucleic acid target sequence according to an embodiment of the present invention is show. […] In the presence of the target, multiple copies of the DNA strand complementary to the labeled oligonucleotide probe are generated using a nucleic acid amplification method, such as, for example, PCR, RPA (shown), or NEAR. Following amplification, the DNA strand complementary to the labeled oligonucleotide probe anneal (i.e., hybridize) with the probe and form a double-stranded substrate. In the presence of a nuclease, the redox moiety (i.e., redox label) is enzymatically cleaved from (e.g., separated from) from the double-stranded substrate effecting release of the redox label. Once cleaved, the redox moiety (i.e., redox label) is able to diffuse and interact with the electrode and detection of the redox moiety is achieved by, for example, DPV, whereby a potential window (E) is swept in a stepwise fashion, and the Faradaic current (I) associated with reduction of the label is recorded. Diffusing redox labels that have been enzymatically released from oligonucleotide probes generate a larger current response, thus enabling electrochemical detection of target amplification.
For example, during initial studies on Alere HeartCheck electrodes, redox moieties with a reduction potential (versus a Ag/AgCl reference electrode) of between approximately […] were considered optimal for multiplexing (FIG. 2). In order to resolve two redox moieties which fall within this window, a difference (ΔE) of approximately ≥50 mV in their peak potential is predicted to be sufficient. Thus, in the case of the HeartCheck electrode, there is a theoretical maximum multiplexing capacity of 5 labels within this window. Note however that alternative (electrode-dependent) windows for detection may be determined.

A short description of data set [3]: Aqueous solubility of redox label. It is filed as physicochemical.

Regarding `CN(CCCC(=O)O)c1ccc2nc3ccc(N(C)c4ccccc4)cc3[s+]c2c1.[Cl-]` [PZ9], the “Emax of calculated Gaussian curve” value in data set [1] is listed as −0.3046 V. Also, the “ΔE vs MB” value in data set [2] is on record as “~+60 mV”.
With `CN(C)c1ccc2nc3ccc(N(C)C)cc3[s+]c2c1.[Cl-]` [Methylene Blue, 3,7-bis(Dimethylamino)-phenothiazin-5-ium chloride], the “Emax of calculated Gaussian curve” value in data set [1] is −0.3731 V. Besides, the reduction peak potential in data set [2] (vs Ag/AgCl during DPV in an RPA context) is −320 mV.
With `C[N+](C)=c1ccc2nc3c(cc(NCCC(=O)O)c4ccccc43)oc-2c1.[Cl-]` [PO1, N-(5-(2-carboxyethylamino)-9H-benzo[a]phenoxazin-9-ylidene)-N-methylmethanaminium chloride], in data set [2], the “E (DPV peak potential of cleaved label)” value is recorded as around −0.52 V and the “ΔE vs MB” value is recorded as around −140 mV.
`CC/[N+](CCCS(=O)(=O)[O-])=c1/ccc2nc3ccc(N(C)CCC(=O)O)cc3oc-2c1` [PO2, N-(3-(N-methyl(2-carboxyethyl)amino)phenoxazin-7-ylidene)-N-ethyl(3-sulfonatopropyl)aminium chloride]: the aqueous solubility result in data set [3] was “good aqueous solubility”. Also, in data set [2], the “E (DPV peak potential of cleaved label)” value is listed as around −0.44 V and the “ΔE vs MB” value was around −60 mV.
